Data on 17 molecules can be found in PubChem BioAssay AID192 (DTP/NCI, 2004).

Values joined by “and” are separate entries in the source; they are usually repeats but may differ in a detail not shown here. Equal values may be shown once. Inconclusive results and toxic doses are left out. Numbered stars: 1 amine (or outer) side, 2 acyl side, 3 side chain; on linkers, the order of the positions; unused ones are H or OH. Bridge positions count the residues as written; N and C are the ends. Square brackets hold non-standard residues; d marks the D form. Peptide text beside a SMILES is read from it. I, II: the chains in the order shown. Actinocin(1to9) = Cc1c2oc3c(C)ccc(C(=O)[*:2])c3nc-2c(C(=O)[*:1])c(N)c1=O; Hyp = O=C(O)[CH]1C[CH](O)CN1; NMeV = CN[CH](C(=O)O)C(C)C; Sar = CNCC(=O)O

This assay relates to BDF1 mice, B16 melanoma ip, median survival T/C. Kind of assay: NCI In Vivo Anticancer Drug Screen. Data for tumor model B16 Melanoma (intraperitoneal) in B6D2F1 (BDF1) mice. The note with it: endpoint: median survival time, higher = longer survival. In outline: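 Vehicle-treated animals serve as the reference (C); treated animals (T) are scored for survival or tumor size after tumor transplantation.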

The mark [1] stands for this setting: dose: 100.0 mg/kg/injection, schedule: Q01DX009 (ip), vehicle: Klucel (hydroxypropylcellulose) (HPC).
Setting [2] is: dose: 200.0 mg/kg/injection, schedule: Q01DX009 (ip), vehicle: Klucel (hydroxypropylcellulose) (HPC).
[3] abbreviates: dose: 25.0 mg/kg/injection, schedule: Q01DX009 (ip), vehicle: saline with Tween-80.
Setting [4] is: dose: 50.0 mg/kg/injection, schedule: Q01DX009 (ip), vehicle: saline with Tween-80.
Where [5] appears, read: dose: 100.0 mg/kg/injection, schedule: Q01DX009 (ip), vehicle: saline with Tween-80.
Setting [6] is: dose: 200.0 mg/kg/injection, schedule: Q01DX009 (ip), vehicle: saline with Tween-80.
Setting [7] is: dose: 12.5 mg/kg/injection, schedule: Q01DX009 (ip), vehicle: saline.
[8] abbreviates: dose: 25.0 mg/kg/injection, schedule: Q01DX009 (ip), vehicle: saline.
The mark [9] stands for this setting: dose: 50.0 mg/kg/injection, schedule: Q01DX009 (ip), vehicle: saline.
The mark [10] stands for this setting: dose: 100.0 mg/kg/injection, schedule: Q01DX009 (ip), vehicle: saline.

For `C=CCOCC(O)CN(C)c1ccccc1` (configuration not stated), the T/C is 92 % of control (dose: 25.0 mg/kg/injection, schedule: Q04DX003 (ip), vehicle: Klucel (hydroxypropylcellulose) (HPC)); 95 % of control (dose: 50.0 mg/kg/injection, schedule: Q04DX003 (ip), vehicle: Klucel (hydroxypropylcellulose) (HPC)); 89 % of control and 90 % of control (dose: 100.0 mg/kg/injection, schedule: Q04DX003 (ip), vehicle: Klucel (hydroxypropylcellulose) (HPC)); 88 % of control (dose: 400.0 mg/kg/injection, schedule: Q04DX003 (ip), vehicle: Klucel (hydroxypropylcellulose) (HPC)).

`Cc1ccc2nc(-c3cc(Br)ccc3O)c(-c3cc(Br)ccc3O)nc2c1`: the T/C is 90 % of control under setting [1] and 88 % of control under setting [2].

For `CCCCN=[N+]=[N-]`, the T/C (dose: 25.0 mg/kg/injection, schedule: Q01DX009 (ip), vehicle: water) was 104 % of control; the T/C (dose: 50.0 mg/kg/injection, schedule: Q01DX009 (ip), vehicle: water) was 98 % of control; the T/C (dose: 100.0 mg/kg/injection, schedule: Q01DX009 (ip), vehicle: water) was 100 % of control; the T/C (dose: 200.0 mg/kg/injection, schedule: Q01DX009 (ip), vehicle: water) was 98 % of control.

`CCCCNc1ccc(C(=O)O)cc1`: the T/C (dose: 100.0 mg/kg/injection, schedule: Q04DX003 (ip), vehicle: gum acacia) is 97 % of control; the T/C (dose: 200.0 mg/kg/injection, schedule: Q04DX003 (ip), vehicle: gum acacia) was 97 % of control; the T/C (dose: 400.0 mg/kg/injection, schedule: Q04DX003 (ip), vehicle: gum acacia) is 86 % of control.

As for `N#Cc1cn(C2OC(CO)C(O)C2O)c2ncnc(N)c12` (configuration not stated), the T/C was 120 % of control (dose: 0.06 mg/kg/injection, schedule: Q01DX009 (ip), vehicle: saline); 118 % of control (dose: 0.12 mg/kg/injection, schedule: Q01DX009 (ip), vehicle: saline); 105 % of control (dose: 0.25 mg/kg/injection, schedule: Q01DX009 (ip), vehicle: saline).

Consider `CCCOP(=S)(N1CC1)N1CC1`, for which the T/C is 91 % of control under setting [3], 99 % of control under setting [4], 91 % of control under setting [5] and 103 % of control under setting [6].

As for `COc1cc2c(cc1OC)C(OC)N(C)c1c-2ccc2cc3c(cc12)OCO3` (configuration not stated), the T/C under setting [3] is 122 % of control.

Regarding `C=CCN1CCCC1=O`, the T/C is 102 % of control (dose: 100.0 mg/kg/injection, schedule: Q04DX003 (ip), vehicle: saline); 95 % of control (dose: 200.0 mg/kg/injection, schedule: Q04DX003 (ip), vehicle: saline); 100 % of control (dose: 400.0 mg/kg/injection, schedule: Q04DX003 (ip), vehicle: saline).

Consider `Nc1cccc(=O)[nH]1`, for which the T/C runs as follows: under setting [7], 90 % of control; under setting [8], 98 % of control; under setting [9], 98 % of control; under setting [10], 98 % of control; (dose: 200.0 mg/kg/injection, schedule: Q01DX009 (ip), vehicle: saline) 90 % of control; (dose: 400.0 mg/kg/injection, schedule: Q01DX009 (ip), vehicle: saline) 92 % of control.

Consider `Cc1c2oc3c(C)ccc(C(=O)NC4C(=O)NC(C(C)C)C(=O)N5CCCC5C(=O)N(C)CC(=O)N(C)C(C(C)C)C(=O)OC4C)c3nc-2c(C(=O)NC2C(=O)NC(C(C)C)C(=O)N3CC(O)CC3C(=O)N(C)CC(=O)N(C)C(C(C)C)C(=O)OC2C)c(N)c1=O` (configuration not stated) (I: TV[Hyp][Sar][NMeV] / II: TVP[Sar][NMeV]; ester I:1-I:C, II:1-II:C; linker I:N-II:N via Actinocin(1to9); configuration not given here), for which the T/C is 152 % of control (dose: 100.0 micrograms/kg/injection, schedule: Q01DX009 (ip), vehicle: saline + alcohol); 158 % of control (dose: 150.0 micrograms/kg/injection, schedule: Q01DX009 (ip), vehicle: saline + alcohol); 120 % of control (dose: 225.0 micrograms/kg/injection, schedule: Q04DX003 (ip), vehicle: saline + alcohol); 121 % of control (dose: 450.0 micrograms/kg/injection, schedule: Q04DX003 (ip), vehicle: saline + alcohol); 95 % of control (dose: 600.0 micrograms/kg/injection, schedule: Q04DX003 (ip), vehicle: saline + alcohol); 88 % of control (dose: 900.0 micrograms/kg/injection, schedule: Q04DX003 (ip), vehicle: saline + alcohol).

In the case of `CC1(C)N=C(N)N=C(N)N1c1ccc(CCCCc2ccc(S(=O)(=O)F)cc2Cl)c(Cl)c1`, the T/C is, setting by setting: (dose: 1.56 mg/kg/injection, schedule: Q01DX009 (ip), vehicle: saline with Tween-80) 120 % of control; (dose: 3.13 mg/kg/injection, schedule: Q01DX009 (ip), vehicle: saline with Tween-80) 120 % of control; (dose: 3.13 mg/kg/injection, schedule: Q01DX009 (ip), vehicle: saline) 117 % of control; (dose: 6.25 mg/kg/injection, schedule: Q01DX009 (ip), vehicle: saline with Tween-80) 176 % of control; (dose: 9.4 mg/kg/injection, schedule: Q04DX003 (ip), vehicle: saline) 120 % of control; (dose: 12.5 mg/kg/injection, schedule: Q01DX009 (ip), vehicle: saline with Tween-80) 158 % of control and 189 % of control. The T/C was 119 % of control (dose: 18.75 mg/kg/injection, schedule: Q04DX003 (ip), vehicle: saline); 164 % of control and 200 % of control under setting [3]; 158 % of control under setting [8]; 182 % of control and 189 % of control under setting [4]; 178 % of control under setting [9]; 157 % of control (dose: 89.0 mg/kg/injection, schedule: Q04DX003 (ip), vehicle: saline with Tween-80). In addition, the T/C under setting [5] is 197 % of control; the T/C (dose: 133.0 mg/kg/injection, schedule: Q04DX003 (ip), vehicle: saline with Tween-80) is 95 % of control; the T/C (dose: 150.0 mg/kg/injection, schedule: Q04DX003 (ip), vehicle: saline) is 160 % of control.

As for `C=C(Br)CNS(C)(=O)=O`, the T/C was 120 % of control (dose: 6.25 mg/kg/injection, schedule: Q01DX009 (ip), vehicle: saline); 110 % of control under setting [7]; 113 % of control under setting [8].

Consider `O=C(Nc1ccc(Cl)cc1)Nc1ccccc1F`, for which the T/C is 89 % of control under setting [5] and 86 % of control under setting [6].

As to `COC(=O)c1ccccc1NC(=O)Nc1ccccc1`, the T/C runs as follows: under setting [1], 110 % of control; under setting [2], 105 % of control; (dose: 400.0 mg/kg/injection, schedule: Q01DX009 (ip), vehicle: Klucel (hydroxypropylcellulose) (HPC)) 99 % of control.

In the case of `CC(C)C1=CC2=CCC3C(C)(CN)CCCC3(C)C2CC1CCN` (configuration not stated), the T/C (dose: 1.25 mg/kg/injection, schedule: Q01DX009 (ip), vehicle: saline with Tween-80) is 100 % of control; the T/C (dose: 1.25 mg/kg/injection, schedule: Q04DX003 (ip), vehicle: saline with Tween-80) is 104 % of control; the T/C (dose: 2.5 mg/kg/injection, schedule: Q01DX009 (ip), vehicle: saline with Tween-80) was 99 % of control; the T/C (dose: 2.5 mg/kg/injection, schedule: Q04DX003 (ip), vehicle: saline with Tween-80) is 88 % of control; the T/C (dose: 5.0 mg/kg/injection, schedule: Q01DX009 (ip), vehicle: saline with Tween-80) is 91 % of control; the T/C (dose: 5.0 mg/kg/injection, schedule: Q04DX003 (ip), vehicle: saline with Tween-80) was 90 % of control.

As for `CN(C)CCCC#N`, the T/C by setting is: under setting [8], 100 % of control; under setting [9], 100 % of control; under setting [10], 100 % of control.

For the molecule `C=C1CCN(c2ccccc2)C1=O`, the T/C reads like this: (dose: 4.0 mg/kg/injection, schedule: Q01DX009 (ip), vehicle: saline + alcohol) 96 % of control; (dose: 8.0 mg/kg/injection, schedule: Q01DX009 (ip), vehicle: saline + alcohol) 116 % of control; (dose: 16.0 mg/kg/injection, schedule: Q01DX009 (ip), vehicle: saline + alcohol) 112 % of control; (dose: 64.0 mg/kg/injection, schedule: Q01DX009 (ip), vehicle: saline + alcohol) 107 % of control.
